Patent publication US20190119282A1, “IMIDAZOPYRIDAZINES USEFUL AS INHIBITORS OF THE PAR-2 SIGNALING PATHWAY” (Vertex Pharmaceuticals Incorporated, priority 2013, published 2019)

Tests used:
[1] = molecular target: T1, PAR2 (HT-29 cells, SLIGKV activation) (Homo sapiens, UniProt P55085); test: Ca FLIPR TETRA assay, ANTAGONIST mode, stimulation with 8 μM SLIGKV; assay type: cell-based; details: HT-29 cells, stimulation with 8 μM SLIGKV
T1 construct: host or cells: HT-29 cells
T1 sequence (P55085 26-397): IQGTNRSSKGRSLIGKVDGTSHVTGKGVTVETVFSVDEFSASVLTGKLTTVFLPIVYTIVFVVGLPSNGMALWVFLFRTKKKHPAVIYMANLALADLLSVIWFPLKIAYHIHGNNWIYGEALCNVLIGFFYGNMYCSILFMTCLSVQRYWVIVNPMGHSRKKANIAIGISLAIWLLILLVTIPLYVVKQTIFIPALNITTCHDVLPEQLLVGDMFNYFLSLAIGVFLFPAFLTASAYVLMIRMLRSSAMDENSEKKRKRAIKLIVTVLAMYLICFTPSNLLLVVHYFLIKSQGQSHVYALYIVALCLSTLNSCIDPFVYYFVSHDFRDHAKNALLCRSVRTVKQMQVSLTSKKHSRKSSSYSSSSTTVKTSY
In short: (§1)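 FLIPR Tetra Ca2+ read-out in HT-29 cells, calcium 5 dye. Compound preincubation 30 min r.t., with an initial read for agonist activity. Final activator levels: SLIGKV 8 μM, thrombin 1 U/mL, trypsin 3.1 U/mL, UTP 0.6 μM.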

[2] = molecular target: T2, PAR2 (HT-29 cells, trypsin activation) (Homo sapiens, UniProt P55085); test: Ca FLIPR TETRA assay, ANTAGONIST mode, stimulation with 3.1 U/mL trypsin; assay type: cell-based; details: HT-29 cells, stimulation with 3.1 U/mL trypsin
T2 construct: host or cells: HT-29 cells
T2 sequence (P55085 26-397): T1 sequence (P55085 26-397)
In short: as §1

[3] = system: Thrombin-stimulated Ca2+ response in HT-29 cells; test: Ca FLIPR TETRA assay, ANTAGONIST mode, stimulation with 1 U/mL Thrombin; assay type: cell-based, human; details: Homo sapiens, HT-29 cells, stimulation with 1 U/mL Thrombin
In short: as §1

[4] = system: UTP-stimulated Ca2+ response in HT-29 cells; test: Ca FLIPR TETRA assay, ANTAGONIST mode, stimulation with 0.6 μM UTP; assay type: cell-based, human; details: Homo sapiens, HT-29 cells, stimulation with 0.6 μM UTP
In short: as §1

| Structure (SMILES) | IC50 ([1]; antagonist mode) [nM] | IC50 ([2]; antagonist mode) [nM] | IC50 ([3]; antagonist mode) [nM] | IC50 ([4]; antagonist mode) [nM] | IC50 [1] [nM] | IC50 [2] [nM] | IC50 [3] [nM] | IC50 [4] [nM] |
| --- | --- | --- | --- | --- | --- | --- | --- | --- |
| Cc1ccc(-c2cc(C(C)C)c3nc(C(=O)N4CCN(C(=O)[C@H]5C[C@@](O)(C(F)(F)F)C5)CC4(C)C)cn3n2)cc1 [Compound I-263] | 6.5 | 7.2 | 220 | > 1000 |  |  |  |  |
| CC(C)c1cc(C2CCCCC2)nn2cc(C(=O)N3CCN(C(=O)C4(O)CCC4)CC3(C)C)nc12 [Compound I-41, (6-Cyclohexyl-8-isopropyl-imidazo[1,2-b]pyridazin-2-yl)-[4-(1-hydroxycyclobutanecarbonyl)-2,2-dimethyl-piperazin-1-yl]methanone] |  |  |  |  | 61 | 280 | 20000 | 21000 |
| CC(C)c1cc(-c2cc(F)cc(F)c2)nn2cc(C(=O)N3CCN(C(=O)C(C)(C)O)CC3(C)C)nc12 [Compound I-224] | 110 | 163 | > 1000 | > 1000 |  |  |  |  |
| CC(C)c1cc(-c2ccc(Cl)cc2)nn2cc(C(=O)N3CCN(C(=O)[C@H]4C[C@](O)(C(F)(F)F)C4)CC3(C)C)nc12 [Compound I-542] | 0.2 | 0.3 | > 1000 | > 1000 |  |  |  |  |
| Cc1ccc(-c2cc(C(C)(C)C)c3nc(C(=O)N4CCN(C(=O)c5cnc(C)[nH]5)CC4(C)C)cn3n2)cc1 [Compound I-422] | 1.9 | 2 | > 1000 | > 1000 |  |  |  |  |
| Cc1cc(C)n(CCC(=O)N2CCN(C(=O)c3cn4nc(-c5ccc(F)cc5)cc(C(C)C)c4n3)C[C@@H]2C)n1 [Compound I-134] |  |  |  |  | 12 | 280 | 10000 | 7900 |
| CC(C)(C)c1cc(-c2ccc(F)cc2)nn2cc(C(=O)N3CCN(C(=O)c4cncnc4)CC3(C)C)nc12 [Compound I-230] | 2.4 | 5.5 | 730 | > 1000 |  |  |  |  |
| CC1CN(C(=O)c2cn3nc(-c4ccc(F)cc4)cc(C(F)(F)F)c3n2)CCC1O (stereo not drawn) [Compound I-68] |  |  |  |  | 5900 | 13000 | 19000 | 29000 |
| O=C(c1cn2nc(-c3ccc(F)cc3)cc(C(F)(F)F)c2n1)N1CCCCC1c1ccncc1 (stereo not drawn) [Compound I-67] |  |  |  |  | 3100 | 3600 | 6700 | 8100 |
| Cc1cc(-c2cc(C(C)C)c3nc(C(=O)N4CCN(C(=O)c5ccn[nH]5)CC4(C)C)cn3n2)ccc1F [Compound I-261] | 3.5 | 6.5 | > 1000 | > 1000 |  |  |  |  |
| CC(C)(C)c1cc(-c2ccc(F)cc2)nn2cc(C(=O)N3CCN(CC#N)C(=O)C3(C)C)nc12 [Compound I-267] | 1.4 | 2 | 560 | > 1000 |  |  |  |  |
| CC(C)(C)c1cc(-c2ccc(Cl)cc2)nn2cc(C(=O)N3CCN(C(=O)[C@H]4CC[C@H](C(=O)O)CC4)CC3(C)C)nc12 [Compound I-491] | 2.4 | 3.2 | > 1000 | > 1000 |  |  |  |  |
| CC1CN(C(=O)c2cn3nc(-c4ccc(F)cc4)cc(C(F)(F)F)c3n2)CCCN1C(=O)OC(C)(C)C (stereo not drawn) [Compound I-94] |  |  |  |  | 3600 | 12000 | > 50000 | > 50000 |
| Cc1cc(-c2cc(C(C)C)c3nc(C(=O)N4CCN(CC(C)(C)O)C(=O)C4(C)C)cn3n2)ccc1F [Compound I-449] | 25.5 | 46.5 | > 1000 | > 1000 |  |  |  |  |
| CC(C)c1cc(-c2ccc(F)cc2)nn2cc(C(=O)N3CCN(C)C(=O)C3(C)C)nc12 [Compound I-181] |  |  |  |  | 10 | 11 | 10000 | 5800 |
| CC(C)(O)C(=O)N1CCN(C(=O)c2cn3nc(-c4ccc(F)cc4)cc(C4CC4)c3n2)C(C)(C)C1 [Compound I-20, 1-[4-[8-cyclopropyl-6-(4-fluorophenyl)imidazo[1,2-b]pyridazine-2-carbonyl]-3,3-dimethyl-piperazin-1-yl]-2-hydroxy-2-methyl-propan-1-one] |  |  |  |  | 280 | 1020 | 3600 | 3000 |
| CC(C)c1cc(-c2ccc(F)cc2)nn2cc(C(=O)N3CCN(C(=O)C(C)(C)O)[C@@H](C)C3)nc12 [Compound I-112] |  |  |  |  | 2400 | 1000 | 38000 | 35000 |
| Cc1nc(C(=O)N2CCN(C(=O)c3cn4nc(-c5ccc(F)cc5)cc(C(C)(C)C)c4n3)C(C)(C)C2)n(COP(=O)(O)O)n1 [Compound I-481] | 47.2 | 44.5 | > 1000 | > 1000 |  |  |  |  |
